Test results published in patent US20220387602A1, “BIFUNCTIONAL DEGRADERS AND THEIR METHODS OF USE” (NOVARTIS AG, priority 2019, published 2022).
Where two headings read alike, the source gives them in different places.

Key:
[1] = target: CRBN (Homo sapiens, UniProt Q96SW2); experiment: CRBN displacement assay Format 2a (fluorescence polarization, 1536-well, Envision reader); format: binding; conditions: for CRBN Amax* (% at 50 μM) Format 2a: greatest effect as % displacement of the reference probe at the highest concentration tested (50 μM), given where AC50 >50 μM
Procedure: Compounds were tested in the following biochemical and cellular assays.
BodipyFL conjugated lenalidomide compound HH was used as a fluorescent probe. […] Protein and substrate were diluted in assay buffer.
The fluorescence of the Bodipy FL-based probe was excited at 480 nm and the emissions of the product were measured at 535 nm. The fluorescence in each well was excited by 30 flashes per measurement.
For the determination of AC50 values, assays were performed at room temperature in 1536-well plates with a total assay volume of 6.03 μL per well. The test compounds were dissolved and diluted in 100% DMSO. For the assays, 30 nL of DMSO or compound solution were added per well, followed by the addition of 3 μL protein solution (80 nM protein in 1× assay buffer).
The final assay concentration of the protein was nominally 40 nM. After 45 minutes of pre-incubation at room temperature, the competition for binding was started by the addition of 3 μL probe solution (10 nM probe dissolved in assay buffer). The final concentration of the probe in the assays was 5 nM. After the addition of the probe solution, the final DMSO concentration in the assay was 0.5% (v/v). The effect of the probe on the pre-established compound-protein complex equilibrium was determined after 45 minutes (t=45 min). The AC50 value was calculated from the plot of percentage of protein saturation versus the test compound concentration by a logistics fit according to: y=A^2+(A^1−A^2)/(1+(x/AC50)^p), where y is the %-saturation value at the test compound concentration, x. A^1 is the lowest saturation value, i.e., 0%, and A^2 the maximum saturation value, i.e. 100%. The exponent, p, is the Hill coefficient.

[2] = target: T1, BTK (Homo sapiens, UniProt Q06187); experiment: BTK-GFP protein abundance flow cytometry assay in HEK293A; format: cell-based; conditions: 24 h
T1 construct: the BTK open reading frame (ORF) was first shuttled from a pcDNA-DEST40-BTK vector; expressed in transfected cells; host or cells: HEK293A (Invitrogen R70507), lentiviral transduction, blasticidin selection
Procedure: Degradation of BTK, CSK, ABL2, EPHA4 and YES1 was measured in HEK293A cells (Invitrogen R70507) expressing either BTK-GFP and RFP, CSK-GFP and mCherry, GFP-ABL2 and mCherry, EPHA4-GFP and mCherry, or YES1-GFP and mCherry from a stably integrated bicistronic BTK-GFP-iresRFP, CSK-GFP-CHYSEL-mCherry, GFP-ABL2-CHYSEL-mCherry, EPHA4-GFP-CHYSEL-mCherry, or YES1-GFP-CHYSEL-mCherry construct, respectively. Reduction of the GFP signal measured by flow cytometry served as readout for BTK, CSK, ABL2, EPHA4 and YES1 degradation after degrader treatment.
The mix was incubated for another 20 min at RT and then added on 1 mL of a freshly prepared suspension of HEK293FT cells in a well of a 6-well plate (concentration 1.2×10^6 cells/mL). 1 day after transfection, the medium was replaced with 1.5 mL of complete growth medium (DMEM high Glucose+10% FCS+1% L-Glutamine+1% NEAA+1% NaPyr.). 48 h post transfection supernatant containing viral transducing particles was collected and frozen at −80° C.
Infection was performed with 90 μL of collected supernatant containing viral transducing particles in 1 mL medium including 8 µg/mL polybrene. 24 h post infection, stably transfected cells were selected with blasticidin at a concentration of 8 μg/mL referred to as stable HEK293A sensor cells.
Stable HEK293A sensor cells were maintained in complete growth medium (DMEM high Glucose+10% FCS+1% L-Glutamine+1% NEAA+1% NaPyr.) with passaging performed twice per week. On Day 0, stable HEK293A sensor cells were seeded at 10,000 cells/well in a 96-well microtiter plate in 260 μL complete medium. On Day 1, cells were treated in duplicate with 10-point 1:3 dilution series of compound using the HP D300 Digital Dispenser (Tecan). DMSO concentrations were normalized across the plate to 0.1%. On Day 2, after 24 h of incubation at 37° C., treatment media was discarded, cells rinsed with 100 μL/well PBS and then detached using 40 μL trypsin/well for 5 min. Trypsin was neutralized with 100 μL/well PBS+20% FCS). Flow cytometry was performed on the samples using the BD FACS CANTO II (Becton Dickinson). Cell identification was then performed using forward (FSC) vs. side scatter (SSC) plots. Single cell discrimination is performed using SSC-Width (SSC-W) vs. SSC-Height (SSC-H) plots. Median GFP values for 5,000 single cells are used to determine BTK levels. Median GFP values from HEK293 Å-iresRFP are used as a background signal and thus defining 0% BTK signal. Median GFP values from DMSO treated HEK293 Å-BTK-GFP-iresRFP are used to define 100% BTK signal for subsequent DC50 curves (concentration at 50% BTK degradation). GFP and RFP are read in the channels called FITC and PE, respectively.
Concentration response curves plotting relative reduction of the GFP signal (measured by flow cytometry) versus 10 compound concentrations (starting concentration 10 μM, 3 fold dilution steps) of the compounds allowed generation of DC50 values. Protein abundance measured for the second generation vectors having a chysel was done in close analogy to the above described method for measuring BTK abundance.
Table 5 columns are defined as follows: DC50 refers to the concentration at which 50% maximal degradation was observed; deg Amax is the extent of degradation and the value refers to the % protein remaining at the concentration at which maximum degradation is seen.

[3] = concentration at which 50% of reference probe Compound HH is displaced, 40 nM protein, 5 nM probe, read-out: CRBN AC50 [μM] Format 2a

CRBN, sequence (Q96SW2 whole entry): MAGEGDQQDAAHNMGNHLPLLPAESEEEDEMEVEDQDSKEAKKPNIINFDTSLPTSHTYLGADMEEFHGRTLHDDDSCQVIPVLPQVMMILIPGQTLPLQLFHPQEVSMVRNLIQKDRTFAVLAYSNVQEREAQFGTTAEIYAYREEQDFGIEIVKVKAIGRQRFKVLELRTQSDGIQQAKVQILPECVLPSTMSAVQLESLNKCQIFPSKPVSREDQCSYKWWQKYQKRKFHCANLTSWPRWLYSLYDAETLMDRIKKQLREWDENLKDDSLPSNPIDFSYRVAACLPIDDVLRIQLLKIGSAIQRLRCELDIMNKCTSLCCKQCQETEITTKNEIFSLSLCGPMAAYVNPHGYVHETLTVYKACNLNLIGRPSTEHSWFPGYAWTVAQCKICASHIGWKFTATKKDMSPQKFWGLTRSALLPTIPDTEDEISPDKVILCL
T1 sequence (Q06187 whole entry): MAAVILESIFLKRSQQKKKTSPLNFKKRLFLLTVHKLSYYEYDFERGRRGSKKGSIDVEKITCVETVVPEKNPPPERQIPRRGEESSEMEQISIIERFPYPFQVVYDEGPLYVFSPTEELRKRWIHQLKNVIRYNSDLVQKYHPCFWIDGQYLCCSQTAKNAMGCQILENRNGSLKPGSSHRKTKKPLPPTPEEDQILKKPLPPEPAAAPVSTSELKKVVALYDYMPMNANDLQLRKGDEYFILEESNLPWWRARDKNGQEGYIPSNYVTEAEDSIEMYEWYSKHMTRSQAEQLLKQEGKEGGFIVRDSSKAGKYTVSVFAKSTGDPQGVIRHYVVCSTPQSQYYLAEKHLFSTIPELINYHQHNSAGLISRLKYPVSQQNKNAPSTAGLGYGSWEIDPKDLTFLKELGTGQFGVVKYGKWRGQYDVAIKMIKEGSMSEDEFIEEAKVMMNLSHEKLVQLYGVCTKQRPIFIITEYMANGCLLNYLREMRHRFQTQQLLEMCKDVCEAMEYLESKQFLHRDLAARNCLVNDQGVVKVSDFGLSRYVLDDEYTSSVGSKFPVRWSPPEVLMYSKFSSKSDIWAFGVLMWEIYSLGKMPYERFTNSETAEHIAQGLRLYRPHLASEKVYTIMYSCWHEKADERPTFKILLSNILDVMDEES

Compound: O=C1CCN(c2ccc(C#CCCCI)cc2)C(=O)N1 [ILB-39, 1-(4-(5-iodopent-1-yn-1-yl)phenyl)dihydropyrimidine-2,4(1H,3H)-dione]
- AC50 [1, 3]: 3.15 µM

Compound: CCOC(COc1ccc(N2CCC(=O)NC2=O)c(Cl)c1)OCC [ILB-61, 1-(2-chloro-4-(2,2-diethoxyethoxy)phenyl)dihydropyrimidine-2,4(1H,3H)-dione]
- AC50 [1, 3]: 3.44 µM

Compound: Cc1cc(O)ccc1N1CCC(=O)NC1=O [ILB-13, 1-(4-hydroxy-2-methylphenyl)dihydropyrimidine-2,4(1H,3H)-dione]
- AC50 [1]: 2.42 µM

Compound: O=C1CCN(c2cc(C(=O)O)ccc2O)C(=O)N1 [ILB-22, 3-(2,4-Dioxotetrahydropyrimidin-1(2H)-yl)-4-hydroxybenzoic acid]
- AC50 [1, 3]: 0.69 µM

Compound: O=C1CCN(Cc2nc(C(=O)O)cs2)C(=O)N1 [ILB-87, 2-((2,4-dioxotetrahydropyrimidin-1(2H)-yl)methyl)thiazole-4-carboxylic acid]
- AC50 [1]: 5.34 µM

Compound: C[Si](C)(C)CCOCN1C(=O)CCN(Cc2cccc(C=O)c2)C1=O [ILB-10, 3-((2,4-Dioxo-3-((2-(trimethylsilyl)ethoxy)methyl)tetrahydropyrimidin-1(2H)-yl)methyl)benzaldehyde]
- AC50 [1, 3]: > 50 µM
- CRBN Amax* (% at 50 μM) Format 2a ([1]; 45 min): 0%

Compound: Cc1c(NC(=O)N2C[C@H](CC(C)C)[C@@H](O)C2)cc(F)cc1-c1ncnc2[nH]c(-c3ccc(CN4CCN(CCOc5ccc(N6CCC(=O)NC6=O)cc5)CC4)cc3)cc12 [Compound 32, (3R,4S)—N-(3-(6-(4-((4-(2-(4-(2,4-Dioxotetrahydropyrimidin-1(2H)-yl)phenoxy)ethyl)piperazin-1-yl)methyl)phenyl)-7H-pyrrolo[2,3-d]pyrimidin-4-yl)-5-fluoro-2-methylphenyl)-3-hydroxy-4-isobutylpyrrolidine-1-carboxamide]
- BTK degradation Amax ([2]; % protein remaining at the concentration at which maximum degradation is seen, HEK293A): 16.7%
- DC50 ([2]; concentration at which 50% maximal degradation was observed, HEK293A BTK-GFP sensor cells): 0.0014 µM

Compound: O=C1CCN(Cc2ccncc2Br)C(=O)N1 [ILB-89, 1-((3-bromopyridin-4-yl)methyl)dihydropyrimidine-2,4(1H,3H)-dione]
- AC50 [1]: 16.7 µM

Compound: NCCN1CCC(Oc2ccc(N3CCC(=O)NC3=O)cc2)CC1 [ILB-68, 1-(4-((1-(2-aminoethyl)piperidin-4-yl)oxy)phenyl)dihydropyrimidine-2,4(1H,3H)-dione]
- AC50 [1, 3]: 4.7 µM

Compound: O=C1CCN(Cc2sccc2Br)C(=O)N1 [ILB-83, 1-((3-bromothiophen-2-yl)methyl)dihydropyrimidine-2,4(1H,3H)-dione]
- AC50 [1]: 45.6 µM

Compound: O=C1CCN(Cc2ncc(Br)cn2)C(=O)N1 [ILB-90, 1-((5-bromopyrimidin-2-yl)methyl)dihydropyrimidine-2,4(1H,3H)-dione]
- AC50 [1]: > 50 µM
- CRBN Amax* (% at 50 μM) Format 2a ([1]; 45 min): 40%

Compound: O=C1CCN(Cc2cc(Cl)ccn2)C(=O)N1 [ILB-91, 1-((4-chloropyridin-2-yl)methyl)dihydropyrimidine-2,4(1H,3H)-dione]
- AC50 [1]: 5.22 µM

Compound: O=C1CCN(Cc2cccn(C3CCN(C(=O)OCc4ccccc4)CC3)c2=O)C(=O)N1 [ILB-94, Benzyl-4-(3-((2,4-dioxotetrahydropyrimidin-1(2H)-yl)methyl)-2-oxopyridin-1(2H)-yl)piperidine-1-carboxylate]
- AC50 [1]: 4.95 µM

Compound: Cn1cc(Br)c(CN2CCC(=O)NC2=O)n1 [ILB-85, 1-((4-bromo-1-methyl-1H-pyrazol-3-yl)methyl)dihydropyrimidine-2,4(1H,3H)-dione]
- AC50 [1]: > 50 µM
- CRBN Amax* (% at 50 μM) Format 2a ([1]; 45 min): 47%

Compound: CCOC(=O)c1cnc(C)c(N2CCC(=O)NC2=O)c1 [ILB-82, ethyl 5-(2,4-dioxotetrahydropyrimidin-1(2H)-yl)-6-methylnicotinate]
- AC50 [1, 3]: 29.8 µM

Compound: Nc1ncc(Br)cc1CN1CCC(=O)NC1=O [ILB-93, 1-((2-amino-5-bromopyridin-3-yl)methyl)dihydropyrimidine-2,4(1H,3H)-dione]
- AC50 [1]: 10.9 µM

Compound: COc1ccc(C(=O)O)cc1CN1CCC(=O)NC1=O [ILB-9, 3-((2,4-Dioxotetrahydropyrimidin-1(2H)-yl)methyl)-4-methoxybenzoic acid]
- AC50 [1]: > 50 µM
- CRBN Amax* (% at 50 μM) Format 2a ([1]; 45 min): 1%

Compound: O=C(O)Cn1cc(N2CCC(=O)NC2=O)cn1 [ILB-65, 2-(4-(2,4-Dioxotetrahydropyrimidin-1(2H)-yl)-1H-pyrazol-1-yl)acetic acid]
- AC50 [1]: 26.1 µM

Compound: 1-((4-bromo-1H-pyrazol-5-yl)methyl)dihydropyrimidine-2,4(1H,3H)-dione [ILB-88]
- AC50 [1, 3]: > 50 µM
- CRBN Amax* (% at 50 μM) Format 2a [1]: 37%

Compound: O=C(O)CCn1cc(N2CCC(=O)NC2=O)cn1 [ILB-66, 3-(4-(2,4-Dioxotetrahydropyrimidin-1(2H)-yl)-1H-pyrazol-1-yl)propanoic acid]
- AC50 [1]: > 50 µM
- CRBN Amax* (% at 50 μM) Format 2a ([1]; 45 min): 46%

Compound: O=C1CCN(Cc2cc(Br)ccn2)C(=O)N1 [ILB-92, 1-((4-bromopyridin-2-yl)methyl)dihydropyrimidine-2,4(1H,3H)-dione]
- AC50 [1]: 1.85 µM

Compound: O=C(O)COc1ccc(Cl)c(N2CCC(=O)NC2=O)c1 [ILB-17, 2-(4-Chloro-3-(2,4-dioxotetrahydropyrimidin-1(2H)-yl)phenoxy)acetic acid]
- AC50 [1, 3]: 3.41 µM

Compound: O=C1CCN(c2ccc(C#CCN3CCC(n4cc(Br)cn4)CC3)cc2)C(=O)N1 [ILB-49, 1-(4-(3-(4-(4-bromo-1H-pyrazol-1-yl)piperidin-1-yl)prop-1-yn-1-yl)phenyl)dihydropyrimidine-2,4(1H,3H)-dione]
- AC50 [1, 3]: 3.36 µM

Compound: NCCC#Cc1ccc(N2CCC(=O)NC2=O)cc1 [ILB-44, 1-(4-(4-aminobut-1-yn-1-yl)phenyl)dihydropyrimidine-2,4(1H,3H)-dione]
- AC50 [1, 3]: 5.43 µM

Compound: O=C1CCN(Cc2cc(C(F)(F)F)[nH]n2)C(=O)N1 [ILB-84, 1-((5-(trifluoromethyl)-1H-pyrazol-3-yl)methyl)dihydropyrimidine-2,4(1H,3H)-dione]
- AC50 [1]: 33.3 µM
